Measured values published in patent US20250339642A1, “CATHETERS” (ConvaTec Limited, priority 2023, published 2025).

Columns and labels:
Assay type in all cases: cell-based
[1] = tested on: Escherichia coli NCIMB 14067; test: In vitro direct inoculation method, bacterial levels over 5 minutes
Method: (§1) An in vitro direct inoculation method was used to assess the antimicrobial activity of sulfanilamide in an intermittent urinary catheter scenario against […] Escherichia coli NCIMB 14067 and […] Enterococcus faecalis NCTC 12201; two microorganisms associated with urinary tract infections. Sulfanilamide concentrations of 0.1% and 0.01% were tested and bacterial levels monitored over a period of 5 minutes.
(§2) Representative colonies of the challenge microorganisms, from an 18-24 hour challenge culture plate, were dispersed in MRD to obtain an optical density (OD540nm) equivalent to approximately 1×10^8 CFU/mL. This was diluted to obtain a working concentration of 1×10^6 CFU/mL. A quantitative count was performed to confirm the inoculum level.
(§3) The challenge organism was prepared in MRD to a concentration of approximately 1×10^6 CFU/mL. This suspension was added in a 1 mL volume to 9 mL of sample (n=3 per sample, n=2 per control) in a sterile 30 mL universal and pipetted up and down to mix. Following each testing period, 5 seconds, 30 seconds, 1 minute, 2 minutes and 5 minutes, 100 μL of the test solution was transferred to 0.9 mL and 9.9 mL volumes of DENB (1:10 and 1:100 dilutions respectively). The most appropriate dilutions were inoculated (100 μL) onto duplicate pre-dried (tryptone soy agar) TSA plates and the inoculum spread using separate sterile L-shaped spreaders (for 10^−1 and 10^−2 dilutions, 0.5 mL were placed onto duplicate plates). The TSA plates were allowed to dry before being inverted and incubated at 35±3° C. for at least 48 hours. Following the incubation period, the number of bacterial colonies were counted on the most appropriate dilution for each dressing type i.e. between 25-250 CFU/plate.
(§4) The samples tested were: 0.1% sulfanilamide in sterile deionised water (SDW); 0.01% sulfanilamide in SDW; 100 ppm hypochlorous acid in SDW; and a SDW control.

[2] = tested on: Enterococcus faecalis NCTC 12201; test: as above
Method: as §1, §2, §3, §4

E. coli = test: Rate of kill assessment, direct repeat inoculation of medium containing catheter; conditions: sample taken 5 seconds after each inoculation
Method: (§5) To assess the sterilisation potential of the medium comprising chlorine-containing species, a microbiology assessment was conducted which consisted of rate of kill assessments against repeat inoculation of E. coli and E. faecalis. These organisms were selected as they are commonly identified in catheter associated urinary tract infections. The selection also covers both gram-positive and gram-negative species to test the broad spectrum antimicrobial performance of the medium.
(§6) Intermittent urinary catheters, as used for Example 1, were provided and submerged in an aqueous medium comprising sodium hypochlorite and sodium chloride. The media comprising the catheters were respectively inoculated with the two microorganisms.
(§7) A direct inoculation method was applied against each microorganism. The test organisms were reinoculated following 1, 2, 3, 4, 5, 6, and 24 hours. Following each inoculation, a sample was taken after 5 seconds, 1, 5, 10 and 15 minutes to evaluate the rate of kill.
(§8) A microbiology assessment was performed using a medium of the invention comprising hypochlorous acid in an analogous manner to that performed for Example 2. However, for this test, following each inoculation, a sample was only taken after 5 seconds to evaluate the rate of kill. Further, in addition to the previous microorganisms tested, a further gram-positive organism, S. aureus, was tested.
(§9) A microbiology assessment was performed using a medium comprising chlorine dioxide in an analogous manner to that performed for Example 5.
(§10) A microbiology assessment was performed using the media comprising hypochlorous acid in an analogous manner to that performed for Example 2. However, for this test, following each inoculation, samples were taken after 5 seconds, 30 seconds, 1, 2, and 5 minutes to evaluate the rate of kill.

E. faecalis = test: as above; conditions: for Reduction in microbial colony forming unit (CFU) counts: reinoculation at 24 hours; for Time up to which rapid kill within 5 seconds following inoculation was observed: repeat inoculation, sample taken 5 seconds after each inoculation
Method: as §5, §6, §7, §8, §9, §10

S. aureus = test: as above; conditions: sample taken 5 seconds after each inoculation
Method: as §8, §9

E. coli NCIMB 14067 = test: Antimicrobial efficacy at very low concentrations, suspension test with total viable counts
Method: The antimicrobial efficacy of hypochlorous acid was tested at even lower concentrations (10, 25, and 50 ppm) against the challenging organism E. coli NCIMB 14067.
The representative colonies of E. coli NCIMB 14067 were dispersed in maximum recovery diluent (MRD) to obtain an optical density (OD540nm) equivalent to approximately 1×10^6 CFU/mL. A quantitative plate count was performed on this suspension to determine the total number of viable organisms inoculated. A new suspension was prepared for each concentration tested.
A 1000 ppm hypochlorous acid solution was diluted in sterile deionised water to provide the respective 10, 25 and 50 ppm hypochlorous acid solutions.
The hypochlorous acid samples were aliquoted into 9 mL volumes and 1 mL of the challenge organism suspension was added and mixed (the final number of bacteria present is now approximately 1×10^5 CFU/mL). Following 5, 30 seconds, 1, 2, and 5 minutes, 100 μL volumes were sampled and transferred to 0.9 mL and 9.9 mL of Dey-Engley Neutralising Broth (DENB) (to provide a 1:10 and 1:100 dilution respectively), and total viable counts were performed to establish the amount present. The plates were left to dry before being inverted and incubated at 35±3° C. for at least 48 hours. A negative control was also tested whereby 1 mL of the challenge organism suspension was added to 9 mL of MRD and tested as previously described. Following the incubation period, the number of CFUs were counted on the most appropriate dilution for each sample i.e. between 25-250 CFU/plate.

[3] = both concentrations tested (0.1% and 0.01% in SDW), any timepoint, 5 seconds to 5 minutes
[4] = 100 ppm in SDW, within 5 seconds and for the remaining testing period

Row | SMILES | Decrease in challenge organism numbers compared to the control [1, 3] | Decrease in challenge organism numbers compared to the control [2, 3] | Time up to which rapid kill within 5 seconds following inoculation was observed (E. coli) | Reduction in microbial colony forming unit (CFU) counts (E. faecalis; after around 30 seconds of inoculation) | Time up to which rapid kill within 5 seconds following inoculation was observed (E. faecalis) | Time up to which rapid kill within 5 seconds following inoculation was observed (S. aureus) | Reduction in microbial colony forming unit (CFU) counts (E. faecalis; after 5 minutes of inoculation) | Numbers of challenge organism [1, 4] | Numbers of challenge organism [2, 4] | Bacterial level at the 1 minute timepoint (E. coli NCIMB 14067; 10 ppm, about 1×10^5 CFU/mL inoculum) | Numbers of bacteria after 30 seconds (E. coli NCIMB 14067; 25 ppm, about 1×10^5 CFU/mL inoculum) | Numbers of bacteria after 30 seconds (E. coli NCIMB 14067; 50 ppm, about 1×10^5 CFU/mL inoculum) | CFU/mL of negative control (MRD) larger than for the samples (E. coli NCIMB 14067; all concentrations (10, 25, 50 ppm) and time points tested)
1 | Nc1ccc(S(N)(=O)=O)cc1 [sulfanilamide, reference compound] | no decrease | no decrease | – | – | – | – | – | – | – | – | – | – | –
2 | [O][Cl+][O-] [chlorine dioxide] | – | – | up to 24 hours | 4 orders of magnitude | up to 6 hours | up to 6 hours | – | – | – | – | – | – | –
3 | OCl [hypochlorous acid] | – | – | up to 24 hours | – | up to 6 hours | up to 6 hours | over 3 orders of magnitude | undetectable | undetectable | undetectable | undetectable | undetectable | over 4 orders of magnitude
